# Earlier results in US11134689B2, “Natural volatile plant oils to repel arthropods” (Shepard Farms, LLC, priority 2011, dated 2021).
# Tested on: fruit fly (Ceratitis capitata)
# Details: in vivo
compound,measurement,value
"CC12CCC(CC1)C(C)(C)O2 [1,8-cineole]",insecticidal activity,high insecticidal activity
